Twelve compounds from patent US11447466B2, “Substituted indole compounds useful as inhibitors of TLR7/8/9” (BRISTOL-MYERS SQUIBB COMPANY, priority 2017, dated 2022) can be followed below.

A word on the IC50: it is the concentration that inhibits the measured activity by half. A higher IC50 goes with weaker potency.

Common to all, as to type: cell-based
One assay concerns the target T1, human TLR8 (Homo sapiens, UniProt Q9NR97).
T1 construct: host or cells: HEK-Blue cells
T1 sequence (Q9NR97 27-1041): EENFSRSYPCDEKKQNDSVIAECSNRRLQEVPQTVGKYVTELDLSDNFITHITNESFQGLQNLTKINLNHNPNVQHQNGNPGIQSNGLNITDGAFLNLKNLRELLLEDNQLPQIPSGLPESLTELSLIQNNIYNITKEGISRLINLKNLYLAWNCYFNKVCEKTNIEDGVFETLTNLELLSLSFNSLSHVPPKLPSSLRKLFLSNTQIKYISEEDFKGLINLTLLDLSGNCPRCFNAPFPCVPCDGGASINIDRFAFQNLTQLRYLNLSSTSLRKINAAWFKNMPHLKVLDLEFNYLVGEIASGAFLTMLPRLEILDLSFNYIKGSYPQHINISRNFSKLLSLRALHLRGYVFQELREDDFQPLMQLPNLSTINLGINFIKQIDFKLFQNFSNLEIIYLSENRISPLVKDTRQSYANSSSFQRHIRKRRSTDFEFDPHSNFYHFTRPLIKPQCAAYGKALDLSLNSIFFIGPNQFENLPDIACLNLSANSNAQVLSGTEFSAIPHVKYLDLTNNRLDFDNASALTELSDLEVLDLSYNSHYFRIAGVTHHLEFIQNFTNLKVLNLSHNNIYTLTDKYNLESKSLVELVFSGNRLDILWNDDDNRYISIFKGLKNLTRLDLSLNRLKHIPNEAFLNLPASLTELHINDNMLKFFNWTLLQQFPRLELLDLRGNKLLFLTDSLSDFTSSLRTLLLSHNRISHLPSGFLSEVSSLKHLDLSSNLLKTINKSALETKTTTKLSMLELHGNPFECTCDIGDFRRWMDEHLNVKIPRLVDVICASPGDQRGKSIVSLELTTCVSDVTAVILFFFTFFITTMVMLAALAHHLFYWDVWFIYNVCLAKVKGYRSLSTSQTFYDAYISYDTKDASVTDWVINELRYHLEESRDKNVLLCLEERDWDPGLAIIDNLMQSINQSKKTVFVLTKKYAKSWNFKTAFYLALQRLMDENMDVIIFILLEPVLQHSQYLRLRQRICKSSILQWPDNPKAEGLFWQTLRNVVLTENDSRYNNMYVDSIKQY
The assay is described as follows: TLR8 inhibition reporter assay (HEK-Blue SEAP reporter, R848 stimulation). Conditions: HEK-Blue cells overexpressing human TLR8, SEAP reporter, R848 15.9 μM, 22 hour incubation. Summed up: (§1)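 Dose–response from 0.05 nM to 50 μM was run in HEK-Blue human TLR7, TLR8 and TLR9 reporter cells. After 30 min at room temperature with compound, ligand was added (TLR7 gardiquimod 7.5 μM; TLR8 R848 15.9 μM; TLR9 ODN2006 5 nM) and SEAP measured next day, at 22 h.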

For another assay, the target named is T2, human TLR9 (Homo sapiens, UniProt Q9NR96).
T2 construct: host or cells: HEK-Blue cells
T2 sequence (Q9NR96 26-1032): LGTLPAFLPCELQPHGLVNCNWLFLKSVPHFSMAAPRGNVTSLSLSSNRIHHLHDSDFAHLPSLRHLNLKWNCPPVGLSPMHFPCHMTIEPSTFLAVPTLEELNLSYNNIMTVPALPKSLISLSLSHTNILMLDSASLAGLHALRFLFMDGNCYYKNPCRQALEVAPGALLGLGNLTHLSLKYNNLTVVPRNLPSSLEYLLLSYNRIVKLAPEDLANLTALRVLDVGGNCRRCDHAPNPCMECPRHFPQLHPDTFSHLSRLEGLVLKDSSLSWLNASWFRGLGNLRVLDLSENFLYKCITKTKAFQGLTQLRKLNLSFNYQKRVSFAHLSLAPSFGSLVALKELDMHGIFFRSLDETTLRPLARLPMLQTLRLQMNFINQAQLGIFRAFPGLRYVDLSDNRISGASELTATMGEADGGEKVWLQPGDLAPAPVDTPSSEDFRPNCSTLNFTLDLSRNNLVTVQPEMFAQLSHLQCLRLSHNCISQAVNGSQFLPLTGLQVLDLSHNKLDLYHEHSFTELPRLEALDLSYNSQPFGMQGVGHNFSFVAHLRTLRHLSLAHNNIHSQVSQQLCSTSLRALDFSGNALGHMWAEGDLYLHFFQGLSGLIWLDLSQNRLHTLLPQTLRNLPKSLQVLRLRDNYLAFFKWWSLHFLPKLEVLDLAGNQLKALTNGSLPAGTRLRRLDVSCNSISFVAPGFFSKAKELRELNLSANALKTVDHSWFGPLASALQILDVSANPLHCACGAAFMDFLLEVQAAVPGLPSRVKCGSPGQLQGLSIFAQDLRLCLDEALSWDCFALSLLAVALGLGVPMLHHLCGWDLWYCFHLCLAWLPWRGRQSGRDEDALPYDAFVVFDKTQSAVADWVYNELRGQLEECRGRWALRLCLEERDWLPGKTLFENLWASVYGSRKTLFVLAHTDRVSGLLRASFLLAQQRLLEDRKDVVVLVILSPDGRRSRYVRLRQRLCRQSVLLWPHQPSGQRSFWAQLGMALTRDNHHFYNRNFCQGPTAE
Nature of the assay: TLR9 inhibition reporter assay (HEK-Blue SEAP reporter, ODN2006 stimulation). As to conditions: HEK-Blue cells overexpressing human TLR9, SEAP reporter, ODN2006 5 nM, 22 hour incubation. In outline: as §1
In general terms: A reporter such as luciferase makes a cellular process visible.

The target of the next assay is T3, human TLR7 (Homo sapiens, UniProt Q9NYK1).
T3 construct: host or cells: HEK-Blue cells
T3 sequence (Q9NYK1 27-1049): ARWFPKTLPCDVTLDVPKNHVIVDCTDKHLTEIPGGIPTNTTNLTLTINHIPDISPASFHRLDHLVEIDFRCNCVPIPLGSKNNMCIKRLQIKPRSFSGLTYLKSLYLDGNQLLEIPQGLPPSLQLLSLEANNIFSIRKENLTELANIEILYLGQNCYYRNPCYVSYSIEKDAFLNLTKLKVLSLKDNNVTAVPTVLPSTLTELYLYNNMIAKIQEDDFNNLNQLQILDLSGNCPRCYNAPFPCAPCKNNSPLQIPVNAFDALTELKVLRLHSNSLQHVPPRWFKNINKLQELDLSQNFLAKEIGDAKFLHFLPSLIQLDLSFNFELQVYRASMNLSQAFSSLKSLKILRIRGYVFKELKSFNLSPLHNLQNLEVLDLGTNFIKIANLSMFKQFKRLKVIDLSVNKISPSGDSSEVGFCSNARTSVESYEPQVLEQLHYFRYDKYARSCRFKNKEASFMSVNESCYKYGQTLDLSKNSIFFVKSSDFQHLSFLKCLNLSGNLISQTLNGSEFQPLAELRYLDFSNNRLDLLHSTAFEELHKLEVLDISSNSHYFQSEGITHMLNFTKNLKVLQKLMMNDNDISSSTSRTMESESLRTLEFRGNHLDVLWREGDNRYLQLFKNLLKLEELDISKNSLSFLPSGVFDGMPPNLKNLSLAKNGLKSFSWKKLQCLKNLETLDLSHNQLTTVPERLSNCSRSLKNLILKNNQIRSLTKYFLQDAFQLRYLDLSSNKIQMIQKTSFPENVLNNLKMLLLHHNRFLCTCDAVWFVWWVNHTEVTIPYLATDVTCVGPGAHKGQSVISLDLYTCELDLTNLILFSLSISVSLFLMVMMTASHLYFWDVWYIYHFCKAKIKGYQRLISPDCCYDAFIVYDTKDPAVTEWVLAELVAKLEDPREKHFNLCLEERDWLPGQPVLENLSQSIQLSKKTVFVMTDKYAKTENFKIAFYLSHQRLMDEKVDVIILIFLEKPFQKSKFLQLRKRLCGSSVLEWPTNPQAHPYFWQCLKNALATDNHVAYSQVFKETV
Nature of the assay: TLR7 inhibition reporter assay (HEK-Blue SEAP reporter, gardiquimod stimulation). As to conditions: HEK-Blue cells overexpressing human TLR7, SEAP reporter, gardiquimod 7.5 μM, 22 hour incubation. Summed up: as §1

Regarding `Cc1cc(-c2[nH]c3ccc(C4CCN(CC(=O)NCC(C)(C)O)CC4)cc3c2C(C)C)cn(C)c1=O` [Example 124, 2-(4-(2-(1,5-dimethyl-6-oxo-1,6-dihydropyridin-3-yl)-3-isopropyl-1H-indol-5-yl)piperidin-1-yl)-N-(2-hydroxy-2-methylpropyl)acetamide], the IC50 at human TLR8 is 11.3 nM; on human TLR9 it was not below 50000 nM; against human TLR7, 9.7 nM.
The corresponding values for `Cc1nc(-c2[nH]c3ccc(C4CCN(C5CCOC5)CC4)cc3c2C(C)C)cn(C)c1=O` (stereo not drawn) [Example 190, 5-(3-isopropyl-5-(1-(tetrahydrofuran-3-yl)piperidin-4-yl)-1H-indol-2-yl)-1,3-dimethylpyrazin-2(1H)-one] are 53.8 nM, 2260 nM and 25.6 nM.
Turning to `Cc1c(-c2[nH]c3ccc(C4CCN(CC(C)(C)O)CC4)cc3c2C(C)C)cn(C)c(=O)c1C#N` [Example 322, 5-(5-(1-(2-hydroxy-2-methylpropyl)piperidin-4-yl)-3-isopropyl-1H-indol-2-yl)-1,4-dimethyl-2-oxo-1,2-dihydropyridine-3-carbonitrile], the IC50 at human TLR8 was 1 nM; against human TLR9, 4790 nM; at human TLR7 it was 45.7 nM.
For `Cc1c(-c2[nH]c3ccc(C4CCN(CC5CCOC5)CC4)cc3c2C(C)C)cn(C)c(=O)c1Cl` (stereo not drawn) [Example 255, 3-chloro-5-(3-isopropyl-5-(1-((tetrahydrofuran-3-yl)methyl)piperidin-4-yl)-1H-indol-2-yl)-1,4-dimethylpyridin-2(1H)-one], in that order: 2.3 nM, 1820 nM and 4.8 nM.
On to `Cc1cc(-c2[nH]c3ccc(C4CCNCC4)cc3c2C(C)C)cn(-c2ccccc2)c1=O` [Example 44, 5-(3-isopropyl-5-(piperidin-4-yl)-1H-indol-2-yl)-3-methyl-1-phenylpyridin-2(1H)-one], for which the figures for the IC50 against human TLR8, on human TLR9 and against human TLR7 were 19.4 nM, 2080 nM and 3.8 nM, respectively.
For `Cc1cc(-c2[nH]c3ccc(C4CCN(CC(C)(C)O)CC4)cc3c2C(C)C)c(C)n(C)c1=O` [Example 316, 5-(5-(1-(2-hydroxy-2-methylpropyl)piperidin-4-yl)-3-isopropyl-1H-indol-2-yl)-1,3,6-trimethylpyridin-2(1H)-one], in that order: 1.9 nM, 3090 nM and 10.2 nM.
Consider `Cc1nn(C)cc1CN1CCC(c2ccc3[nH]c(-c4cc(C)c(=O)n(C)c4)c(C(C)C)c3c2)CC1` [Example 232, 5-(5-(1-((1,3-dimethyl-1H-pyrazol-4-yl)methyl)piperidin-4-yl)-3-isopropyl-1H-indol-2-yl)-1,3-dimethylpyridin-2(1H)-one], for which the IC50 was determined as 1.1 nM against human TLR8, 6010 nM at human TLR9 and 2.9 nM on human TLR7.
For `CNC(=O)CN1CCC(c2ccc3[nH]c(-c4cc(C)c(=O)n(C)c4C)c(C(C)C)c3c2)CC1` [Example 139, 2-(4-(3-isopropyl-2-(1,2,5-trimethyl-6-oxo-1,6-dihydropyridin-3-yl)-1H-indol-5-yl)piperidin-1-yl)-N-methylacetamide], the results for the IC50 against human TLR8, against human TLR9 and against human TLR7 were 4.2 nM, 10400 nM and 15.4 nM, respectively.
For `CC(C)c1c(-c2cc(-c3cccnc3)c(=O)n(C)c2)[nH]c2ccc(C3CCN(CCO)CC3)cc12` [Example 236, 5-(5-(1-(2-hydroxyethyl)piperidin-4-yl)-3-isopropyl-1H-indol-2-yl)-1-methyl-[3,3′-bipyridin]-2(1H)-one], in that order: 9.8 nM, 980 nM and 4.6 nM.
As to `CNC(=O)CN1CCC(c2ccc3[nH]c(-c4cc(OC)c(=O)n(C)c4C)c(C(C)C)c3c2)CC1` [Example 142, 2-(4-(3-isopropyl-2-(5-methoxy-1,2-dimethyl-6-oxo-1,6-dihydropyridin-3-yl)-1H-indol-5-yl)piperidin-1-yl)-N-methylacetamide], the IC50 against human TLR8 worked out at 95.4 nM; at human TLR9, 7650 nM; against human TLR7, 205 nM.
For `CNC(=O)CN1CCC(c2ccc3[nH]c(-c4cn(C)c(=O)c(Cl)c4C)c(C(C)C)c3c2)CC1` [Example 153, 2-(4-(2-(5-chloro-1,4-dimethyl-6-oxo-1,6-dihydropyridin-3-yl)-3-isopropyl-1H-indol-5-yl)piperidin-1-yl)-N-methylacetamide], in that order: 12.6 nM, 7880 nM and 3.5 nM.
For `Cc1cc(-c2[nH]c3ccc(C4CCN(C(C)C)CC4)cc3c2C(C)C)cn(C)c1=O` [Example 182, 5-(3-isopropyl-5-(1-isopropylpiperidin-4-yl)-1H-indol-2-yl)-1,3-dimethylpyridin-2(1H)-one], in that order: 7.3 nM, 5550 nM and 5.9 nM.
